# Reference: patent US12714696B2, “Low dose fluralaner compositions for protection against parasitic invertebrate pest” (VIRBAC, priority 2019, dated 2026)
# Read-outs that look alike come from different tables or passages of the source.
# Experiments:
# [1] = Pharmacokinetics after repeated oral administration of 250 μg/kg and 35 μg/kg of fluralaner in dogs after feeding; assay type: in vivo, beagle dogs; conditions: for concentration at 168 h / concentration at 192 h / concentration at 216 h / concentration at 240 h / concentration at 384 h / concentration at 528 h / concentration at 624 h / concentration at 720 h / half-life / Cmax: beagle, dog, plasma, po
# Procedure: The first objective is to obtain the pharmacokinetic parameters after repeated oral administration of […] and 35 μg/kg of fluralaner in dogs after feeding.
# The second objective is to investigate the pharmacodynamics between the fluralaner plasmatic dose and the effectiveness against ticks. • IVP: Investigational Veterinary Product, is pure Fluralaner+DMSO (250 μg/kg on Days 0 to 3 (0.25 mL/kg), then 35 μg/kg on Days 4 to 9 (0.35 mL/kg), then 600 μg/kg on Day 11) • Control product is DMSO (0.25 mL/kg on Days 0 to 3, then 0.35 mL/kg on Days 4 to 9)
# On Days 0, 1, 2 and 3, all dogs assigned to group 2 received the Investigational Veterinary Product. On Days 0 to 3 all dogs in group 1 received the control product at a volume equal to the dogs in group 2. Dogs assigned to group 1 received the control product and served as Placebo controls. The quantity of Investigational Veterinary Product and control product administered was calculated according to the dog's individual body weight measured on Day −1. […]
# On days of administration of pre-Investigational Veterinary Product or Control Product, dogs were fed (the same dog food) approximately half of their normal daily ration 30 minutes to 35 minutes prior to administration. Food consumed by the time of administration was calculated and recorded. The remainder of their normal daily ration was fed immediately after administration.
# The PK parameters of fluralaner were calculated using a non-compartmental approach.
# The following rules were applied for the calculation of the PK parameters: • All the plasma concentrations, validated by the bioanalytical laboratory, were used for the PK analysis. • The actual blood sampling times were used throughout. • Concentrations below the Limit of Quantification (LOQ) value were considered as zero from time zero (pre-dose) up to the time at which the first quantifiable concentration above the LOQ value was observed. Concentrations below the LOQ value between two quantifiable concentrations were considered as missing. Trailing concentrations below the LOQ value were not used in calculations.
# Cmax the observed maximum concentration in plasma measured after dosing.
# λz the terminal rate constant (λz) was estimated by log-linear regression analysis on data points visually assessed, to be on the terminal log-linear phase. For the slope of the terminal elimination phase to be accepted as reliable, the following criteria were used: • the terminal data points were apparently randomly distributed about a single straight line (on visual inspection), • a minimum of three data points, including the last measured data point and excluding Cmax, were available for the regression.
# t1/2 the terminal plasma half-life (t1/2) was calculated according to the following equation: […]
# [2] = Comparison of plasma concentration simulated from experimental data with literature data; set-up: species or system dogs; conditions: simulation from experimental data (Table 6)
# [3] = oral 250/35/600 μg/kg regimen, dogs, n=6, read-out: fluralaner concentration levels, Mean
# [4] = oral 250/35/600 μg/kg regimen, dogs, n=6, read-out: fluralaner concentration levels, Median
# [5] = oral 250/35/600 μg/kg regimen, dogs, n=6, read-out: fluralaner concentration levels, Minimum
# [6] = oral 250 μg/kg Days 0-3, 35 μg/kg Days 4-9, 600 μg/kg Day 11, dogs, read-out: fluralaner concentration levels, individual animal
# [7] = oral 250/35/600 μg/kg regimen, dogs, n=6, read-out: fluralaner concentration levels, GeoMean
# [8] = oral 250/35/600 μg/kg regimen, dogs, n=6, read-out: fluralaner concentration levels, Maximum
compound,measurement,setting,value
"Cc1cc(C2=NOC(c3cc(Cl)cc(Cl)c3)(C(F)(F)F)C2)ccc1C(=O)NCC(=O)NCC(F)(F)F (stereo not drawn) [fluralaner, Fluralaner]",concentration at 168 h,[1]; [3],518 ng/mL
same,concentration at 168 h,[1]; [4],520 ng/mL
same,concentration at 168 h,[1]; [5],461 ng/mL
same,concentration at 192 h,[1]; [6],542 ng/mL
same,concentration at 192 h,[1]; [7],508 ng/mL
same,concentration at 192 h,[1]; [8],558 ng/mL
same,concentration at 192 h,[1]; [3],509 ng/mL
same,concentration at 192 h,[1]; [4],520 ng/mL
same,concentration at 192 h,[1]; [5],455 ng/mL
same,concentration at 216 h,[1]; [6],477 ng/mL
same,concentration at 216 h,[1]; [7],515 ng/mL
same,concentration at 216 h,[1]; [8],650 ng/mL
same,concentration at 216 h,[1]; [3],518 ng/mL
same,concentration at 216 h,[1]; [4],485 ng/mL
same,concentration at 216 h,[1]; [5],468 ng/mL
same,concentration at 240 h,[1]; [6],386 ng/mL
same,concentration at 240 h,[1]; [7],469 ng/mL
same,concentration at 240 h,[1]; [8],724 ng/mL
same,concentration at 240 h,[1]; [3],483 ng/mL
same,concentration at 240 h,[1]; [4],422 ng/mL
same,concentration at 240 h,[1]; [5],368 ng/mL
same,concentration at 384 h,[1]; [6],561 ng/mL
same,concentration at 384 h,[1]; [7],693 ng/mL
same,concentration at 384 h,[1]; [8],1000 ng/mL
same,concentration at 384 h,[1]; [3],714 ng/mL
same,concentration at 384 h,[1]; [4],654 ng/mL
same,concentration at 384 h,[1]; [5],523 ng/mL
same,concentration at 528 h,[1]; [7],327 ng/mL
same,concentration at 528 h,[1]; [8],517 ng/mL
same,concentration at 528 h,[1]; [3],339 ng/mL
same,concentration at 528 h,[1]; [4],320 ng/mL
same,concentration at 528 h,[1]; [5],235 ng/mL
same,concentration at 624 h,[1]; [7],254 ng/mL
same,concentration at 624 h,[1]; [8],403 ng/mL
same,concentration at 624 h,[1]; [3],263 ng/mL
same,concentration at 624 h,[1]; [4],244 ng/mL
same,concentration at 624 h,[1]; [5],182 ng/mL
same,concentration at 720 h,[1]; [6],300 ng/mL
same,concentration at 720 h,[1]; [7],262 ng/mL
same,concentration at 720 h,[1]; [8],300 ng/mL
same,concentration at 720 h,[1]; [3],265 ng/mL
same,concentration at 720 h,[1]; [4],280 ng/mL
same,concentration at 720 h,[1]; [5],187 ng/mL
same,half-life,"[1]; oral 250 μg/kg Days 0-3, 35 μg/kg Days 4-9, 600 μg/kg Day 11, dogs, read-out: mean terminal half-life (converted)",15.5 days
same,Cmax,"[1]; oral 250/35/600 μg/kg regimen, dogs, read-out: Cmax, range",561 to 1000 ng/mL
same,Cmax,"[1]; oral 250/35/600 μg/kg regimen, dogs, read-out: mean Cmax",733 ng/mL
same,half-life,"[1]; oral 250/35/600 μg/kg regimen, dogs, read-out: terminal half-life, range",9.47 to 20.6 days
same,steady state concentrations,[1]; with the 35 μg/kg per day dose application from Day 4 to Day 9,reached
same,AUCextra,[2],68221.98 µg·days/L
same,AUClast,[2],483104.77 µg·days/L
same,AUCtot,[2],551326.76 µg·days/L
same,t1/2,[2],9.56 days
same,tmax,[2],3 days
same,Cmax,[2]; compared with literature oral 50.0 mg/kg values,31.9942 µg/mL
